From patent US20250320213A1, “Nitrogen-Containing Heterocyclic Compounds” (Pfizer Inc., priority 2024, published 2025)

Molecular target: T1, STAT6 (Homo sapiens, UniProt P42226)
T1 construct: stably transfected HaCaT keratinocyte cell line, which expresses NanoLuc luciferase reporter gene under the transcriptional control of the STAT6 responsive promoter; endogenous in cells; host or cells: HaCaT keratinocyte reporter cell line (stably transfected with a NanoLuc reporter)
T1 sequence (P42226 1-847): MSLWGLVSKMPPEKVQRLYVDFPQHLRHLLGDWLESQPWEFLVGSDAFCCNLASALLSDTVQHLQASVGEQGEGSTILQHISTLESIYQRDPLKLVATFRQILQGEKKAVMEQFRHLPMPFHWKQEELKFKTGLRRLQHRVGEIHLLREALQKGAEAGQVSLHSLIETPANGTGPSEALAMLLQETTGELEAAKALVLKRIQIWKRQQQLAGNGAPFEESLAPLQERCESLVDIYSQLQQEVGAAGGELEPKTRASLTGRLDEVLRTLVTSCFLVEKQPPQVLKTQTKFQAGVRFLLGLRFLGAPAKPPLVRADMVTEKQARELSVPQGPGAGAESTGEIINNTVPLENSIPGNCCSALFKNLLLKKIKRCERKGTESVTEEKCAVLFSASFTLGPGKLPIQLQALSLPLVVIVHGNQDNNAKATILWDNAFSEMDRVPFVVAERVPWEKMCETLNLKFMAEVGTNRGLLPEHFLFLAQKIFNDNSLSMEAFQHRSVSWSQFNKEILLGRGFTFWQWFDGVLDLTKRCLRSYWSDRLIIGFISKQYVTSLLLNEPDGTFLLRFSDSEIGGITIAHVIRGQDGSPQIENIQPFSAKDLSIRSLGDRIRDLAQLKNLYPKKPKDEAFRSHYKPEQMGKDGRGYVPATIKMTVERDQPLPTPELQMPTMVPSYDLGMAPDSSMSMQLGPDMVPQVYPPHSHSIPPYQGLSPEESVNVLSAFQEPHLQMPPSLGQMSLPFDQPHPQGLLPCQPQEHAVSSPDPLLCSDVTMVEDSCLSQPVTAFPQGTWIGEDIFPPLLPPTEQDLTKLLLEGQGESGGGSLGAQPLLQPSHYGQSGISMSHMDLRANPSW
Assay: STAT6 Reporter Luciferase Assay (IL-13 stimulated HaCaT keratinocyte NanoLuc reporter cells)
Format: cell-based
Conditions: IL-13 stimulated HaCaT STAT6 NanoLuc reporter cells; read-out: Reporter EC50
Procedure, shortened: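 Cells were plated overnight, washed, exposed to compound for two hours, stimulated with IL-13 (0.12 nM final) for four hours at 37 °C, and then lysed with Nano-Glo substrate for 15 min before luminescence reading.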

| SMILES | EC50 |
| --- | --- |
| CC(=O)N1C[C@@H]2CN(C(=O)c3ccc(N4CCc5c(c(C(=O)NCc6ccc(NC(=O)N(C)C)cc6)nn5C(C)C)C4)nc3)C[C@@H]2C1 [Example 296, 5-(5-((3aR,6aS)-5-acetyloctahydropyrrolo[3,4-c]pyrrole-2-carbonyl)pyridin-2-yl)-N-(4-(3,3-dimethylureido)benzyl)-1-isopropyl-4,5,6,7-tetrahydro-1H-pyrazolo[4,3-c]pyridine-3-carboxamide] | 523 nM |
| CC(C)n1nc(C(=O)NCc2ccc(NC(=O)N3CCN(C)CC3)cc2)c2c1[C@@H](C)CN(c1ccc3c(c1)OCCN(C)C3=O)C2 [Example 657, (S)-1-isopropyl-7-methyl-5-(4-methyl-5-oxo-2,3,4,5-tetrahydrobenzo[f][1,4]oxazepin-8-yl)-N-(4-(4-methylpiperazine-1-carboxamido)benzyl)-4,5,6,7-tetrahydro-1H-pyrazolo[4,3-c]pyridine-3-carboxamide] | 2 nM |
| CC(C)n1nc(C(=O)NCc2ccc(NC(=O)N(C)C)cc2)c2c1CCN(c1ccc(C(=O)N3C[C@@H]4CCO[C@@H]4C3)cn1)C2 [Example 241, N-(4-(3,3-dimethylureido)benzyl)-5-(5-((3aS,6aS)-hexahydro-2H-furo[2,3-c]pyrrole-5-carbonyl)pyridin-2-yl)-1-isopropyl-4,5,6,7-tetrahydro-1H-pyrazolo[4,3-c]pyridine-3-carboxamide] | 330 nM |
| Cc1c2c(nn1C)CCN(C(=O)c1ccc(N3CCc4c(c(C(=O)NCc5ccc(NC(=O)N(C)C)cc5)nn4C(C)C)C3)nc1)C2 [Example 381, 5-(5-(2,3-dimethyl-4,5,6,7-tetrahydro-2H-pyrazolo[4,3-c]pyridine-5-carbonyl)pyridin-2-yl)-N-(4-(3,3-dimethylureido)benzyl)-1-isopropyl-4,5,6,7-tetrahydro-1H-pyrazolo[4,3-c]pyridine-3-carboxamide] | 33 nM |
| CC(C)n1nc(C(=O)NCc2ccc(NC(=O)N(C)C)cc2)c2c1CCN(c1ccc(C(=O)N3CCCC(O)C3)cn1)C2 (racemic) [Example 220, rac-(R)-N-(4-(3,3-dimethylureido)benzyl)-5-(5-(3-hydroxypiperidine-1-carbonyl)pyridin-2-yl)-1-isopropyl-4,5,6,7-tetrahydro-1H-pyrazolo[4,3-c]pyridine-3-carboxamide] | 336 nM |
| CC(C)n1nc(C(=O)NCc2ccc(NC(=O)N(C)C)cc2)c2c1CCN(c1ccc(C(=O)N3CCC(C)(O)C3)cn1)C2 (racemic) [Example 219, rac-(R)-N-(4-(3,3-dimethylureido)benzyl)-5-(5-(3-hydroxy-3-methylpyrrolidine-1-carbonyl)pyridin-2-yl)-1-isopropyl-4,5,6,7-tetrahydro-1H-pyrazolo[4,3-c]pyridine-3-carboxamide] | 1310 nM |
| CC(C)n1nc(C(=O)NCc2ccc(NC(=O)N3CCC(C(=O)O)CC3)c(F)c2)c2c1[C@@H](C)CN(c1ccc(C(=O)N(C)C)cc1)C2 [Example 734, (S)-1-((4-((5-(4-(dimethylcarbamoyl)phenyl)-1-isopropyl-7-methyl-4,5,6,7-tetrahydro-1H-pyrazolo[4,3-c]pyridine-3-carboxamido)methyl)-2-fluorophenyl)carbamoyl)piperidine-4-carboxylic acid] | 38 nM |
| CC(C)n1nc(C(=O)NCc2ccc(NC(=O)N3CCC[C@@H](N(C)C)C3)cc2)c2c1[C@@H](C)CN(c1ccc(C(=O)N(C)C)cc1)C2 [Example 754, (S)-N-(4-((R)-3-(dimethylamino)piperidine-1-carboxamido)benzyl)-5-(4-(dimethylcarbamoyl)phenyl)-1-isopropyl-7-methyl-4,5,6,7-tetrahydro-1H-pyrazolo[4,3-c]pyridine-3-carboxamide] | 2 nM |
| CC(C)n1nc(C(=O)NCc2ccc(NC(=O)N(C)C)cc2)c2c1CCN(c1ccc(C(=O)N3CC[C@H](C#N)C3)cn1)C2 [Example 291, (S)-5-(5-(3-cyanopyrrolidine-1-carbonyl)pyridin-2-yl)-N-(4-(3,3-dimethylureido)benzyl)-1-isopropyl-4,5,6,7-tetrahydro-1H-pyrazolo[4,3-c]pyridine-3-carboxamide] | 793 nM |
| CC(=O)NC1CN(C(=O)c2ccc(N3CCc4c(c(C(=O)NCc5ccc(NC(=O)N(C)C)cc5)nn4C(C)C)C3)nc2)C1 [Example 292, 5-(5-(3-acetamidoazetidine-1-carbonyl)pyridin-2-yl)-N-(4-(3,3-dimethylureido)benzyl)-1-isopropyl-4,5,6,7-tetrahydro-1H-pyrazolo[4,3-c]pyridine-3-carboxamide] | 990 nM |
| CC(C)n1nc(C(=O)NCc2ccc(NC(=O)N3CCC4(CC3)CN(C)CCO4)c(F)c2)c2c1[C@@H](C)CN(c1ccc(C(=O)N(C)C)cc1)C2 [Example 643, (S)-N-(4-((5-(4-(dimethylcarbamoyl)phenyl)-1-isopropyl-7-methyl-4,5,6,7-tetrahydro-1H-pyrazolo[4,3-c]pyridine-3-carboxamido)methyl)-2-fluorophenyl)-4-methyl-1-oxa-4,9-diazaspiro[5.5]undecane-9-carboxamide] | 1 nM |
| CCC(=O)N1CCN(C(=O)c2ccc(N3CCc4c(c(C(=O)NCc5ccc(NC(=O)N(C)C)cc5)nn4C(C)C)C3)nc2)CC1 [Example 196, N-(4-(3,3-dimethylureido)benzyl)-1-isopropyl-5-(5-(4-propionylpiperazine-1-carbonyl)pyridin-2-yl)-4,5,6,7-tetrahydro-1H-pyrazolo[4,3-c]pyridine-3-carboxamide] | 90 nM |
| CC(C)n1nc(C(=O)NCc2ccc(NC(=O)N(C)C)cc2)c2c1CCN(c1ccc(C(=O)N3CCOCC3)cn1)C2 [Example 206, N-(4-(3,3-dimethylureido)benzyl)-1-isopropyl-5-(5-(morpholine-4-carbonyl)pyridin-2-yl)-4,5,6,7-tetrahydro-1H-pyrazolo[4,3-c]pyridine-3-carboxamide] | 97 nM |
| CC(C)n1nc(C(=O)NCc2ccc(NC(=O)N(C)C)cc2)c2c1CCN(c1ccc(C(=O)N3CCc4cccnc4C3)cn1)C2 [Example 417, N-(4-(3,3-dimethylureido)benzyl)-1-isopropyl-5-(5-(5,6,7,8-tetrahydro-1,7-naphthyridine-7-carbonyl)pyridin-2-yl)-4,5,6,7-tetrahydro-1H-pyrazolo[4,3-c]pyridine-3-carboxamide] | 17 nM |
| CC(C)n1nc(C(=O)NCc2ccc(NC(=O)N(C)C)cc2)c2c1CCN(c1ccc(C(=O)N3CCC[C@H]3C(N)=O)cn1)C2 [Example 197, (S)-5-(5-(2-carbamoylpyrrolidine-1-carbonyl)pyridin-2-yl)-N-(4-(3,3-dimethylureido)benzyl)-1-isopropyl-4,5,6,7-tetrahydro-1H-pyrazolo[4,3-c]pyridine-3-carboxamide] | 197 nM |
| CC(C)n1nc(C(=O)NCc2ccc(NC(=O)N3CC4(CCCN(C)C4)C3)cc2)c2c1[C@@H](C)CN(c1ccc(C(=O)N(C)C)cc1)C2 [Example 741, (S)-5-(4-(dimethylcarbamoyl)phenyl)-1-isopropyl-7-methyl-N-(4-(6-methyl-2,6-diazaspiro[3.5]nonane-2-carboxamido)benzyl)-4,5,6,7-tetrahydro-1H-pyrazolo[4,3-c]pyridine-3-carboxamide] | 1 nM |
| CC(C)n1nc(C(=O)NCc2ccc(NC(=O)N(C)C)cc2)c2c1CCN(c1ccc(C(=O)N3CCc4ncn(C)c4C3)cn1)C2 [Example 405, N-(4-(3,3-dimethylureido)benzyl)-1-isopropyl-5-(5-(3-methyl-4,5,6,7-tetrahydro-3H-imidazo[4,5-c]pyridine-5-carbonyl)pyridin-2-yl)-4,5,6,7-tetrahydro-1H-pyrazolo[4,3-c]pyridine-3-carboxamide] | 159 nM |
| CC(=O)N[C@@H]1CCN(C(=O)c2ccc(N3CCc4c(c(C(=O)NCc5ccc(NC(=O)N(C)C)cc5)nn4C(C)C)C3)nc2)C1 [Example 211, (R)-5-(5-(3-acetamidopyrrolidine-1-carbonyl)pyridin-2-yl)-N-(4-(3,3-dimethylureido)benzyl)-1-isopropyl-4,5,6,7-tetrahydro-1H-pyrazolo[4,3-c]pyridine-3-carboxamide] | 934 nM |
| Cc1nc2c(s1)CCN(C(=O)c1ccc(N3CCc4c(c(C(=O)NCc5ccc(NC(=O)N(C)C)cc5)nn4C(C)C)C3)nc1)C2 [Example 406, N-(4-(3,3-dimethylureido)benzyl)-1-isopropyl-5-(5-(2-methyl-4,5,6,7-tetrahydrothiazolo[4,5-c]pyridine-5-carbonyl)pyridin-2-yl)-4,5,6,7-tetrahydro-1H-pyrazolo[4,3-c]pyridine-3-carboxamide] | 11 nM |
